Data as given in the supplement of paper PMC10307832.

How the values were obtained:
Test in all cases: relative viability (nuclei count vs DMSO), 5 days (fraction); higher = more cells survive
Erlotinib + Pictilisib = compound: C#Cc1cccc(Nc2ncnc3cc(OCCOC)c(OCCOC)cc23)c1 [Erlotinib] + CS(=O)(=O)N1CCN(Cc2cc3nc(-c4cccc5[nH]ncc45)nc(N4CCOCC4)c3s2)CC1 [Pictilisib] (partner 1 µM)
Outline: (§1)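 Dosing by pin tool came one day after lung cancer cell lines were seeded in 1536-well plates, using either one drug or a fixed anchor-drug dose plus five library-drug doses (not always all listed) in √10 steps. After 5 days, nuclei were counted on 4× images. Relative viability is treated-well nuclei count divided by vehicle-well nuclei count, and values are medians of duplicate plates.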

Erlotinib + Tozasertib = compound: C#Cc1cccc(Nc2ncnc3cc(OCCOC)c(OCCOC)cc23)c1 [Erlotinib] + Cc1cc(Nc2cc(N3CCN(C)CC3)nc(Sc3ccc(NC(=O)C4CC4)cc3)n2)n[nH]1 [Tozasertib] (partner 0.1 µM)
Outline: as §1

AT9283 + Decitabine = compound: O=C(Nc1c[nH]nc1-c1nc2ccc(CN3CCOCC3)cc2[nH]1)NC1CC1 [AT9283] + Nc1ncn([C@H]2C[C@H](O)[C@@H](CO)O2)c(=O)n1 [Decitabine] (partner 2 µM)
Outline: as §1

Erlotinib + Palbociclib = compound: C#Cc1cccc(Nc2ncnc3cc(OCCOC)c(OCCOC)cc23)c1 [Erlotinib] + CC(=O)c1c(C)c2cnc(Nc3ccc(N4CCNCC4)cn3)nc2n(C2CCCC2)c1=O [Palbociclib] (partner 0.5 µM)
Outline: as §1

AT9283 + Olaparib = compound: O=C(Nc1c[nH]nc1-c1nc2ccc(CN3CCOCC3)cc2[nH]1)NC1CC1 [AT9283] + O=C(c1cc(Cc2n[nH]c(=O)c3ccccc23)ccc1F)N1CCN(C(=O)C2CC2)CC1 [Olaparib] (partner 8 µM)
Outline: as §1

Cell Line	relative viability (Erlotinib + Pictilisib; first compound 0.02 µM)	relative viability (Erlotinib + Pictilisib; first compound 0.2 µM)	relative viability (Erlotinib + Pictilisib; first compound 0.6325 µM)	relative viability (Erlotinib + Pictilisib; first compound 2 µM)	relative viability (Erlotinib + Tozasertib; first compound 0.02 µM)	relative viability (Erlotinib + Tozasertib; first compound 0.2 µM)	relative viability (Erlotinib + Tozasertib; first compound 0.6325 µM)	relative viability (Erlotinib + Tozasertib; first compound 2 µM)	relative viability (AT9283 + Decitabine; first compound 0.003 µM)	relative viability (AT9283 + Decitabine; first compound 0.03 µM)	relative viability (AT9283 + Decitabine; first compound 0.09487 µM)	relative viability (AT9283 + Decitabine; first compound 0.3 µM)	relative viability (Erlotinib + Palbociclib; first compound 0.02 µM)	relative viability (Erlotinib + Palbociclib; first compound 0.2 µM)	relative viability (Erlotinib + Palbociclib; first compound 0.6325 µM)	relative viability (AT9283 + Olaparib; first compound 0.003 µM)	relative viability (AT9283 + Olaparib; first compound 0.03 µM)	relative viability (AT9283 + Olaparib; first compound 0.09487 µM)	relative viability (AT9283 + Olaparib; first compound 0.3 µM)	relative viability (Erlotinib + Palbociclib; first compound 2 µM)
HCC-44	0.662	0.696	0.752	0.523	1.18	0.421	1.04	0.711	0.702	0.969	0.749	0.871	0.991	1.03	0.982	1.01	0.963	0.724	0.817	
HCC-78	0.195	0.207	0.218	0.21	0.407	0.289	0.385	0.402	0.548	0.626	0.428	0.322	0.482	0.432	0.458	0.909	0.599	0.273	0.249	0.459
HCC-366	0.185	0.0789	0.12	0.137	0.0918	0.0854	0.0664	0.039	0.337	0.299	0.141	0.0851	0.389	0.358	0.544	0.362	0.262	0.113	0.0721	0.312
HCC-827	0.374	0.241	0.273	0.329	0.223	0.114	0.101	0.126	0.235	0.234	0.258	0.214	0.191	0.146	0.135	0.702	0.53	0.344	0.255	0.154
HOP-62	1.08	0.725	0.788	0.625	0.405	0.409	0.411	0.26	0.212	0.217	0.152	0.165	0.544	0.517	0.453	0.514	0.308	0.137	0.201	0.41
IA-LM	0.338		0.348	0.13												0.998	0.524	0.243	0.145	
LC-2-ad	0.557	0.427	0.429	0.303	0.484	0.383	0.414	0.345	0.872	0.685	0.471	0.255	0.527	0.491	0.472	0.708	0.647	0.304	0.196	0.411
LCLC-97TM1	0.171		0.226	0.211	0.285	0.204	0.203	0.172	0.199	0.175	0.104	0.089	0.234	0.243	0.256	0.41	0.233	0.103	0.0959	0.194
LCLC-103H	0.614	0.587	0.753	0.538	0.434	0.48	0.595	0.313	0.755	0.774	0.444	0.35	0.503	0.429	0.457	0.77	0.784	0.467	0.37	0.467
LK-2	0.649	0.519	0.735	0.599	0.196	0.17	0.157	0.158	0.215	0.116	0.113	0.0972	0.579	0.589	0.712	0.742	0.312	0.113	0.103	0.743
NCI-H522					0.493	0.573	0.508	0.465	0.67	0.607	0.569	0.479	0.908	0.969	0.883	0.619	0.553	0.453	0.575	0.824
NCI-H596	0.383	0.478	0.383	0.351	0.805	0.848	0.69	0.722	1.07	0.946	0.934	0.783				0.653	0.663	0.619	0.567	
NCI-H1299	0.894	0.839	0.918	0.55												0.911	0.657	0.366	0.316	
NCI-H1563	0.63	0.706	0.679	0.636																
NCI-H1623					0.437	0.315	0.29	0.209												
NCI-H1648					0.489	0.434	0.555	0.252	0.515	0.503	0.409	0.303	0.337	0.277	0.293	0.636	0.584	0.254	0.461	0.272
NCI-H1703	0.233	0.218	0.29	0.243												0.383	0.155	0.169	0.229	
NCI-H1792	0.305	0.183	0.269	0.21					0.499	0.56	0.567	0.345	0.612	0.541	0.639	0.468	0.491	0.358	0.252	
NCI-H2228	0.385	0.405	0.351	0.348	0.237	0.164	0.169	0.142					0.805	0.739		0.675	0.455	0.228	0.153	0.572
NCI-H2342					0.444	0.495	0.491	0.361	0.653	0.766	0.655	0.455	0.469	0.439	0.457	0.476	0.434	0.384	0.292	0.591
SW 900					0.514	0.487	0.33	0.257	0.422	0.442	0.349	0.232	0.492	0.48	0.472	0.882	0.783	0.507	0.312	0.398
